From patent US6184207A, “Inhibitors of peptide binding to MHC class II proteins” (Zeneca Limited, priority 1996, dated 2001)

Tests used:
BALB/C mice = experiment: Test C: Peptide stimulated DTH (delayed type hypersensitivity) in BALB/C mice; type: in vivo; conditions: ovalbumin DTH footpad swelling, 3-day osmotic mini-pumps
Procedure: Test C: Peptide stimulated DTH (delayed type hypersensitivity) in BALB/C mice. […] Balb/c female mice (18-20 g), 5 per group, were immunised sub-cutaneously on the flank with 0.1 ml of an emulsion of ovalbumin (Sigma) (2 mg/ml in saline) mixed 1:1 (v/v) with complete Freunds adjuvant (Sigma). Seven days later footpad thickness was detemined using a dual caliper micrometer followed by a challenge in one hind footpad with a 30 μl sub-plantar injection of 1% heat-aggregated ovalbumin protein in saline. Twenty-four hours after antigen challenge, footpads were measured and the DTH response calculated as the percentage increase in footpad thickness in the injected footpad compared to contralateral control. Inhibitors were adminstered by 3-day osmotic mini-pumps (Alzet) implanted 24 hours prior to antigen challenge at doses ranging from 10 mg/kg/day to 0.1 μg/kg/day. The degree of inhibition was calculated by substracting the value for swelling of inhibitor treated footpads from that of the vehicle dosed controls, dividing by the control value and multiplying by 100%.

HLA-DR4Dw4 = target: T1, HLA-DR4Dw4 (Homo sapiens, UniProt P01903+P01911, A100K/A169T/F76Y/I96L/K127E/L162R/M171V/N62H/P40V/Q125Y/R42H/S133A/S149N/S66Y/V115G/V209L/W38E); experiment: Test A: Purified HLA-DR peptide in vitro binding assay; conditions: inhibition of biotin-FHA 307-320 binding to purified HLA-DR4Dw4, 48 hours
T1 construct: a cDNA encoding the β chain is cloned into the transfer vector pAcUW1; made in house; host or cells: Sf21 insect cells, double-recombinant baculovirus
From the text: The utility of the peptides of the formula I, or a pharmaceutically acceptable salt thereof, may be assessed using a variety of standard tests and clinical studies, including those described in International Patent Application, Publication Nos. WO92/02543, WO93/05011 and WO95/07707 (or modifications thereof) and those described below. The peptides of formula I show significant activity in one or more of such tests or studies. Test A: Purified HLA-DR peptide in vitro binding assay. […]. […] The reaction is stopped by adding 2M sulphuric acid (10 μl per well) and the absorbance read at 450 nm to quantify the amount of peptide bound. The inhibitory activity of peptides is obtained by plotting absorbance against concentration. […]
A cDNA encoding the sequence of the α polypeptide is cloned into the transfer vector pacYM1 [Matsuura, Y; Possce, RD; Overton, HA & Bishop, DHL (1987) J. Gen. […] The molecular genetic techniques used to construct the recombinant vectors are likewise readily available in the literature and are most fully described by Sambrook, J; Fritsch, EF & Maniatis T, (1989) [Molecular Cloning. […]

Structure (SMILES): C[C@H](NC(=O)CN1CCCC(NC(=O)[C@@H](NC(=O)[C@H](C)NC(=O)[C@H](C)NC(=O)[C@H](C)NC(=O)[C@H](CCCNC(=N)N)NC(=O)CCCCc2ccccc2)[C@@H](C)O)C1=O)C(=O)Nc1ccc(CC(N)=O)cc1 (stereo partly drawn) [Example 1, Phv-Arg-Ala-Ala-Ala-Thr-II-Ala-Papa-NH2]
- dose at which active in Test C (BALB/C mice): < 0.1 mg/kg/day
- concentration showing significant binding to HLA-DR4Dw4 in Test A (HLA-DR4Dw4): ≤ 0.1 µM
